Structures are written as SMILES. Bounds are passed on as bounds.

Broadly, the IC50 is the point on the concentration scale where inhibition reaches its midpoint.

Test [1] deals with BafT_J2. Description: Cellular screening, BaF3 TEL:JAK2 cells (Alamar Blue). Format: cell-based. The following applies: Mus musculus, 40 hr incubation. On the procedure:
(§1) For screening purposes, compounds were diluted in 96 well plates at a concentration of 20 μM. Plates were warmed at 37° C. for 30 minutes before the assay was performed.
(§2) The coding region encompassing nucleotides 1-487 of TEL was amplified by PCR using the oligonucleotides 5TEL (5′-GGAGGATCCTGATCTCTCTCGCTGTGAGAC-3′) [SEQ ID NO 14] and 3TEL (5′-AGGC GTCGACTTCTTCTTCATGGTTCTG-3′) [SEQ ID NO 15] and U937 mRNA as a template. A BamHI restriction site was incorporated into the 5TEL primer, and a Sal I restriction site was incorporated into the 3TEL primer. The regions encompassing the kinase domain of JAK2 (nucleotides 2994-3914; JAK2F 5′-ACGC GTCGACGGTGCCTTTGAAGACCGGGAT-3′ [SEQ ID NO 16]; JAK2R 5′-ATAGTTTAGCGGCCGCTCAGAATGAAGGTCATTT-3′) [SEQ ID NO 17] and JAK3 (nucleotides 2520-3469; JAK3F 5′-GAAGTCGACTATGCCTGCCAAGACCCCACGATCTT-3′) [SEQ ID NO 18] were generated by PCR using Taq DNA polymerase (Gibco/BRL) and U937 mRNA as a template. A Sal I restriction site was incorporated into the forward primer of JAK2 and JAK3, a Not I site was incorporated into the JAK2 reverse primer and a Xba I site was added to the reverse primer of JAK3.
A TEL/Jak2 fusion was generated by digestion of the TELPCR product with BamH I/Sal I restriction enzymes, digestion of the JAK2 PCR product with Sal I/Not I restriction enzymes, followed by ligation and subcloning of the ligation product into the mammalian expression Vector pTRE 2 (Clontech), which was prepared by digestion with BamH I-Not I restriction enzymes, to give the TEL/Jak2 fusion plasmid pTELJAK2.
(§3) The growth factor dependant myelomonocytic cell line BaF3 bearing the pTET-off plasmid (Clontech) was transfected with either pTELJAK2 or pTELJAK3, and the transfected cells were selected for growth-factor independent cell growth. The BaF3 wild-type cells were cultured in DMEM containing 10% FCS, 10% WEHI 3B conditioned medium. The BaF3 TELJAK cells ([…]) were cultured in DMEM 10% Tet-System Approved FBS (without WEHI 3B conditioned medium).
(§4) Cell suspensions were prepared by harvesting cells from culture. (the cells used in this test were in late log phase growth with high viability.) Cells were diluted in the appropriate growth medium, as described above, to 1.1× final concentration (from 50,000 cell/mL to 200,000 cell/mL, depending on cell line).
(§5) Compounds to be tested were added (10 μL, 10× final concentration) to a flat bottomed 96-well plate. The cellular suspension (90 μL per well) was then added, and the plate incubated for 40 hr at 37° C., 5% CO2. Alamar Blue 10 μL per well was added and the plates returned to the incubator for a further 4-6 hours. The plates were then read at 544 nm.
(Resazurin is reduced to fluorescent resorufin, in cell work by metabolically active cells.)

Test [2] deals with CTLL2. Briefly: Cellular screening, CTLL2 cells (Alamar Blue). Type of test: cell-based. The settings on record: Mus musculus, CTLL-2, 40 hr incubation. On the procedure: as §1, §4, §5
The subject of test [3] is BafT_J3. Description: Cellular screening, BaF3 TEL:JAK3 cells (Alamar Blue). Type of test: cell-based. The settings on record: Mus musculus, 40 hr incubation. On the procedure: as §1, §2
The TEL/Jak3 fusion was prepared by ligation of the JAK3 Sal I/Not I cleaved kinase domain PCR product with the BamH I/Sal I restriction digested TEL product, followed by ligation of the ligation product into the BamH I/Not I digested pTRE2, to give the TEL/Jak3 fusion plasmid pTELJAK3.
as §3, §4, §5

Test [4] deals with T1, human JAK2 (Homo sapiens, UniProt O60674).
T1 construct: The kinase domain of human JAK2 was amplified; GST (N); made in house; host or cells: Sf9 (Spodoptera frugiperda) insect cells, baculovirus
Description: JAK2 kinase enzyme assay (Alphascreen). Format: biochemical. The following applies: 80 or 625 um ATP. On the procedure: (§6) For screening purposes, compounds (in 100% DMSO) were warmed at 37 degrees for at least 20 minutes before use. A […] stock was initially made in assay buffer, where the final concentration of DMSO was 0.3%. The stocks were then diluted in 384 well Optiplates (Packard) where the final concentration of the compound was 5 μM.
The kinase domain of human JAK2 was amplified from U937mRNA using the polymerase chain reaction with the following primers: […]
The JAK2 PCR products were cloned into the pDest20 destination vector (Gibco). The JAK2 plasmid was then transformed into competent DH10Bac cells (Gibco), and the recombinant baculovirus was prepared via Sf9 insect cell transfection.
(§7) Baculovirus preparations from each of the JAK family members were infected into one litre of Sf9 (Spodoptera frugiperda) cells (Invitrogen) grown in SF900II serum free medium (Invitrogen) to a cell density of approximately 2×10^6 cells/ml. Cells were infected with virus at a cell culture to virus stock ratio of 20:1. Cells were harvested and lysed 48 hours post infection. The GST-tagged JAK kinase domains were purified by affinity chromatography on a GSH agarose column (Scientifix).
(§8) Kinase assays were performed in 384 well Optiplates (Packard) using an Alphascreen Protein Tyrosine KinaseP100 detection kit The compounds were pre-incubated with affinity purified PTK domain in the presence of phosphotyrosine assay buffer (10 mM HEPES, pH 7.5, 100 mM MgCl2, 25 mM NaCl, 200 mM sodium vanadate and 0.1% Tween 20) for 20 minutes. The compounds were then incubated with substrate in the presence of either 80 or 625 um ATP for 60 or 90 minutes. The substrate used was either susbtrate-1 with the sequence biotin-EGPWLEEEEEAYGWMDF-NH2 [SEQ. ID. NO. 13] (final concentration 111 μM) or susbtrate-2 substrate with the sequence biotin-EQEDEPEGDYFEWLEPE (final concentration 133 μM). Alphascreen phosphotyrosine acceptor beads followed by streptavidin donor beads at a concentration of 1/100 in stop buffer were added to each well under subdued light and incubated for 2-3 hours. The Alphascreen plates were read on a Packard Fusion Alpha instrument.
In general terms: Alpha assays give light when donor and acceptor beads are brought close together.

Test [5] deals with BAF3wt. Description: Cellular screening, BaF3 wild-type cells (Alamar Blue). Format: cell-based. The following applies: Mus musculus, 40 hr incubation. How it is done:
as §1, §3, §4, §5

In test [6] the target is T2, human JAK3 (Homo sapiens, UniProt P52333).
T2 construct: The kinase domain of human JAK3 was amplified; GST (N); made in house; host or cells: Sf9 (Spodoptera frugiperda) insect cells, baculovirus
Briefly: JAK3 kinase enzyme assay (Alphascreen). Type of test: biochemical. The following applies: 80 or 625 um ATP. How it is done:
as §6
The kinase domain of human JAK3 was amplified from U937mRNA using the polymerase chain reaction with the following primers: […]
The JAK3 PCR products were cloned into the pDest20 destination expression vector (Gibco). The JAK3 plasmid was then transformed into competent DH10Bac cells (Gibco), and the recombinant baculovirus was prepared via Sf9 insect cell transfection.
as §7, §8

T1 sequence (O60674 849-1124 limits assumed): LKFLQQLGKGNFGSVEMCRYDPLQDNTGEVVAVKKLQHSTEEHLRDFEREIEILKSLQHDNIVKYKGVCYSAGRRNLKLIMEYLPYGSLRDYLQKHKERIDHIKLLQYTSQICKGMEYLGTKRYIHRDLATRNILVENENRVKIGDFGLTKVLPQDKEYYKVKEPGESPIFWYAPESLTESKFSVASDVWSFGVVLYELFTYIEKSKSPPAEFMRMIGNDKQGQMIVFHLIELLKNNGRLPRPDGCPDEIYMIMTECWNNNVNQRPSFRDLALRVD
T2 sequence (P52333 822-1111 limits assumed): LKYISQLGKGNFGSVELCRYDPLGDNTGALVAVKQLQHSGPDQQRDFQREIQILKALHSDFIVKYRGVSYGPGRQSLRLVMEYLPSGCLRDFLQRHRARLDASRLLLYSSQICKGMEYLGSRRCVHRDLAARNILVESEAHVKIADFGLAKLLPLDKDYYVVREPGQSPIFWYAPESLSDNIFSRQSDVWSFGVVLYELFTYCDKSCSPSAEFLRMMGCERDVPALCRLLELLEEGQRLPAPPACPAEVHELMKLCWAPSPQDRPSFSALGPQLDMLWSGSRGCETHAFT

Regarding `c1cc(Nc2ncc3scc(-c4ccc5c(c4)OCO5)c3n2)ccc1CN1CCOCC1` [Compound 76, 7-(benzo[d][1,3]dioxol-5-yl)-N-(4-(morpholinomethyl)phenyl)thieno[3,2-d]pyrimidin-2-amine], the IC50 is under 1 µM in test [1]; under 1 µM in test [2]; under 1 µM in test [3]; under 0.1 µM in test [4]; under 1 µM in test [5]; under 0.5 µM in test [6].

With `CC(=O)Nc1cccc(-c2csc3cnc(Nc4ccc(OCCN5CCCC5)cc4)nc23)c1` [Compound 62, N-(3-(2-(4-(2-(pyrrolidin-1-yl)ethoxy)phenylamino)thieno[3,2-d]pyrimidin-7-yl)phenyl)acetamide], the IC50 in test [1] was under 1 µM; in test [2], under 1 µM; in test [3] it was under 1 µM; in test [4] it was under 0.1 µM; in test [5] it was under 1 µM; in test [6] it was under 0.1 µM.

For `Fc1ccc(-c2csc3cnc(Nc4ccc(OCCN5CCCC5)cc4)nc23)cc1Cl` [Compound 74, 7-(3-chloro-4-fluorophenyl)-N-(4-(2-(pyrrolidin-1-yl)ethoxy)phenyl)thieno[3,2-d]pyrimidin-2-amine], the half-maximal inhibitory concentration (IC50) in test [1] is under 1 µM; in test [2], under 5 µM; in test [3], under 5 µM; in test [4], under 0.1 µM; in test [5] it was under 5 µM; in test [6], under 0.5 µM.

Regarding `COc1ccc(-c2csc3cnc(Nc4ccc(OC)c(OC)c4)nc23)c(OC)n1` [Compound 55, N-(3,4-dimethoxyphenyl)-7-(2,6-dimethoxypyridin-3-yl)thieno[3,2-d]pyrimidin-2-amine], the IC50 in test [1] is under 5 µM; in test [2] it was under 5 µM; in test [3] it was under 5 µM; in test [4], under 0.1 µM; in test [5], under 5 µM; in test [6], under 0.1 µM.

As to `Nc1ccc(-c2csc3cnc(Nc4ccc(N5CCOCC5)cc4)nc23)cc1` [Compound 2, 7-(4-aminophenyl)-N-(4-morpholinophenyl)thieno[3,2-d]pyrimidin-2-amine], the IC50 in test [1] was under 1 µM; in test [2], under 1 µM; in test [3] it was under 1 µM; in test [4], under 0.1 µM; in test [5] it was under 1 µM; in test [6] it was under 0.1 µM.

As to `COc1cc(-c2csc3cnc(Nc4ccc(N5CCOCC5)cc4)nc23)ccc1N` [Compound 10, 7-(4-amino-3-methoxyphenyl)-N-(4-morpholinophenyl)thieno[3,2-d]pyrimidin-2-amine], the IC50 in test [1] was under 1 µM; in test [2], under 1 µM; in test [3], under 1 µM; in test [4], under 0.1 µM; in test [5], under 1 µM; in test [6], under 0.1 µM.

On to `CC(C)(C)OC(=O)N1CC=C(c2csc3cnc(Nc4ccc(CN5CCOCC5)cc4)nc23)CC1` [Compound 79, tert-butyl 4-(2-(4-(morpholinomethyl)phenylamino)thieno[3,2-d]pyrimidin-7-yl)-5,6-dihydropyridine-1(2H)-carboxylate], for which the IC50 was under 1 µM in test [1]; under 1 µM in test [2]; under 5 µM in test [3]; under 0.1 µM in test [4]; under 5 µM in test [5]; under 0.1 µM in test [6].

As to `CS(=O)(=O)N(CC#N)c1ccc(-c2csc3cnc(Nc4ccc(N5CCOCC5)cc4)nc23)cc1` [Compound 32, N-(cyanomethyl)-N-(4-(2-(4-morpholinophenylamino)thieno[3,2-d]pyrimidin-7-yl)phenyl)methanesulfonamide], the IC50 in test [1] was under 1 µM; in test [2], under 1 µM; in test [3] it was under 1 µM; in test [4], under 0.1 µM; in test [5] it was under 5 µM; in test [6] it was under 0.1 µM.

On to `CCN1CCC(Oc2ccc(Nc3ncc4scc(-c5cn[nH]c5)c4n3)cc2)CC1` [Compound 98, N-(4-(1-ethylpiperidin-4-yloxy)phenyl)-7-(1H-pyrazol-4-yl)thieno[3,2-d]pyrimidin-2-amine], for which the half-maximal inhibitory concentration (IC50) was under 1 µM in test [1]; under 1 µM in test [2]; under 1 µM in test [3]; under 0.1 µM in test [4]; under 1 µM in test [5]; under 0.1 µM in test [6].

With `COc1cc(Nc2ncc3scc(-c4ccc(NCCN5CCOCC5)nc4)c3n2)cc(OC)c1OC` [Compound 94, 7-(6-(2-morpholinoethylamino)pyridin-3-yl)-N-(3,4,5-trimethoxyphenyl)thieno[3,2-d]pyrimidin-2-amine], the IC50 was under 1 µM in test [1]; under 1 µM in test [2]; under 1 µM in test [3]; under 0.1 µM in test [4]; under 1 µM in test [5]; under 0.5 µM in test [6].

For `CCc1ccccc1-c1csc2cnc(Nc3ccc(OCCN4CCCC4)cc3)nc12` [Compound 95, 7-(2-ethylphenyl)-N-(4-(2-(pyrrolidin-1-yl)ethoxy)phenyl)thieno[3,2-d]pyrimidin-2-amine], the IC50 was under 1 µM in test [1]; under 1 µM in test [2]; under 1 µM in test [3]; under 0.1 µM in test [4]; under 1 µM in test [5]; under 0.1 µM in test [6].

Regarding `CC(=O)Nc1cccc(-c2csc3cnc(Nc4ccc(N5CCOCC5)cc4)nc23)c1` [Compound 30, N-(3-(2-(4-morpholinophenylamino)thieno[3,2-d]pyrimidin-7-yl)phenyl)acetamide], the IC50 in test [1] was under 1 µM; in test [2], under 5 µM; in test [3], under 1 µM; in test [4] it was under 0.1 µM; in test [5] it was under 1 µM; in test [6], under 0.1 µM.

The record behind these values is patent US8765755B2, “N-containing heterocyclic compounds” (YM Biosciences Australia Pty Ltd, priority 2007, dated 2014).
